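Where inhibition never reached the appropriate level, the endpoint shown equals the highest concentration tested. Otherwise, values were interpolated linearly from a five-concentration, 48-hour dose response in 96-well plates. GI50 marks 50% less growth.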 Activity calls are given as the source filed them. No stated cut-off is given here; in the data, active = GI50 up to about 1.1 µM and inactive = higher.
Tests used:
Assay in all cases: DTP human tumour cell line panel, 48 h
[1] = test system: NCI-H23
[2] = test system: NCI-H226
[3] = test system: T47D
[4] = test system: DU-145
[5] = test system: M14
[6] = test system: SW-620
[7] = test system: UACC-62
[8] = test system: HCC 2998
[9] = test system: SF-268
[10] = test system: EKVX
[11] = test system: RXF 393
[12] = test system: SF-539
[13] = test system: OVCAR-8
[14] = test system: MDA-MB-435
[15] = test system: OVCAR-5
[16] = test system: A549
[17] = test system: SK-OV-3
[18] = test system: ACHN
[19] = test system: SNB-75
[20] = test system: HT-29

Measured: GI50

CC(C)(Cl)C(Cl)CC/C(CBr)=C(\Cl)CBr (stereo not given)
inactive: [1] 1.85 µM | [2] 1.79 µM | [3] 1.96 µM | [4] 7.5 µM | [5] 1.6 µM | [6] 1.6 µM | [7] 1.76 µM | [8] 9.68 µM | [9] 3.3 µM | [10] 16.5 µM | [11] 1.53 µM | [12] 2.4 µM | [13] 1.95 µM | [14] 2.37 µM | [15] 2.29 µM | [16] 10.6 µM | [17] 4.31 µM | [18] 3.66 µM | [19] 2.23 µM | [20] 2.84 µM

CSc1nc(Cl)c2c(n1)Sc1nc3ccccc3n1C2O (stereo not given)
inactive: [1] 5.65 µM | [2] 29.1 µM | [3] 15.3 µM | [4] 11.4 µM | [5] 3.46 µM | [6] 3.52 µM | [7] 3.42 µM | [8] 3.91 µM | [9] 5.25 µM | [10] 33.4 µM | [11] 1.58 µM | [12] 1.83 µM | [13] 2.84 µM | [14] 3.63 µM | [15] 4.92 µM | [16] 7.38 µM | [17] 47.9 µM | [18] 5.89 µM | [19] 10.6 µM | [20] 3.52 µM
